Data on 14 compounds can be found in US11981674B1, “7-isopropyl 1-ethyl/methyl 3-(substituted benzoyl)-2-substituted indolizine-1,7-dicarboxylates as larvicidal agents” (KING FAISAL UNIVERSITY, priority 2023, dated 2024).

This series concerns Anopheles arabiensis. In words: Larvicidal screening (WHO protocol), 3rd instar larvae. The settings on record: for mortality at 4 µg/mL: Anopheles arabiensis. The series is classed as in vivo. The method, then: Anopheles arabiensis was used in the study according to the protocol described by WHO (1975) guidelines in an insectary simulating the temperature (27.5° C.), humidity (70%), and lighting (12/12) of a malaria-endemic environment. One mL of test compound (1 mg/mL) was added to 1 mL of acetone and followed by […] of distilled water to obtain a final concentration of 4 μg/mL. Thirty individuals of 3rd instar larvae were introduced into a container. Negative control was set up using the solvent (acetone) and distilled water, and a positive control included Temephos, which is an active emulsified organophosphate larvicidal used by malaria control programs. Larval mortality was examined for each container separately for 24 h and fed specially made cat food that contained less oil/fat content. The percentage of mortality was determined relative to the initial number of larvae exposed.
Differences in larval mortality between treatments were assessed with generalized linear models using a quasi-Poisson link function. Anopheles arabiensis mortality was the dependent variable, while fixed effects were test compounds and observation period (24 and 48 h). A p-value <0.05 was considered statistically significant. Throughout the text, the results are presented as the adjusted mean±the standard error.

[1] abbreviates: 24 h, read-out: larval mortality rate in 24 hours.
[2] abbreviates: 48 h, read-out: larval mortality rate in 48 hours.

Read-outs that look alike come from different tables or passages of the source.

Broadly, the mortality is the share of the test organisms that died. For `COC(=O)c1c(C(=O)OC)c2cc(C(=O)OC(C)C)ccn2c1C(=O)c1cc(C(F)(F)F)cc(C(F)(F)F)c1` [Compound 3l, 7-Isopropyl 1,2-dimethyl 3-(3,5-bis(trifluoromethyl)benzoyl)indolizine-1,2,7-tricarboxylate], the mortality at 4 µg/mL reads like this: (24 h, read-out: Mortality 24 h) 97.2 ± 2.3%; under setting [1], 97.2 ± 2.3%; (48 h, read-out: Mortality 48 h) 99.5 ± 1.49%; under setting [2], 99.5 ± 1.49%.

On to `CCOC(=O)c1cc(C(=O)c2ccc(Cl)cc2)n2ccc(C(=O)OC(C)C)cc12` [Compound 3f, 1-Ethyl 7-isopropyl 3-(4-chlorobenzoyl)indolizine-1,7-dicarboxylate], for which the mortality at 4 µg/mL is, setting by setting: (24 h, read-out: Mortality 24 h) 66 ± 2.94%; under setting [1], 66 ± 2.94%; (48 h, read-out: Mortality 48 h) 69.2 ± 2.47%; under setting [2], 69.2 ± 2.47%.

Turning to `COC(=O)c1c(C(=O)OC)c2cc(C(=O)OC(C)C)ccn2c1C(=O)c1ccc(C)cc1` [Compound 3k, 7-Isopropyl 1,2-dimethyl 3-(4-methylbenzoyl)indolizine-1,2,7-tricarboxylate], the mortality at 4 µg/mL is, setting by setting: (24 h, read-out: Mortality 24 h) 57.5 ± 1.32%; under setting [1], 57.5 ± 1.32%; (48 h, read-out: Mortality 48 h) 60 ± 1.87%; under setting [2], 60 ± 1.87%.

On to `COC(=O)c1c(C(=O)OC)c2cc(C(=O)OC(C)C)ccn2c1C(=O)c1ccccc1` [Compound 3a, 7-Isopropyl 1,2-dimethyl 3-benzoylindolizine-1,2,7-tricarboxylate], for which the mortality at 4 µg/mL by setting is: (24 h, read-out: Mortality 24 h) 39.2 ± 1.64%; under setting [1], 39.2 ± 1.64%; (48 h, read-out: Mortality 48 h) 45.5 ± 2.65%; under setting [2], 45.5 ± 2.65%.

`CCOC(=O)c1cc(C(=O)c2ccccc2)n2ccc(C(=O)OC(C)C)cc12` [Compound 3b, 1-Ethyl 7-isopropyl 3-benzoylindolizine-1,7-dicarboxylate]: the mortality at 4 µg/mL (24 h, read-out: Mortality 24 h) worked out at 32.6 ± 2.44%; the mortality at 4 µg/mL under setting [1] stood at 32.6 ± 2.44%; the mortality at 4 µg/mL (48 h, read-out: Mortality 48 h) is 36.8 ± 1.79%; the mortality at 4 µg/mL under setting [2] came out at 36.8 ± 1.79%.

As to `COP(=S)(OC)Oc1ccc(Sc2ccc(OP(=S)(OC)OC)cc2)cc1` [Temephos, reference compound], the mortality at 4 µg/mL runs as follows: (24 h, read-out: Mortality 24 h) 98.3%; (48 h, read-out: Mortality 48 h) 100%.

As to `CCOC(=O)c1cc(C(=O)c2ccc(Br)cc2)n2ccc(C(=O)OC(C)C)cc12` [Compound 3h, 1-Ethyl 7-isopropyl 3-(4-bromobenzoyl)indolizine-1,7-dicarboxylate], the mortality at 4 µg/mL by setting is: (24 h, read-out: Mortality 24 h) 82.3 ± 1.23%; under setting [1], 82.3 ± 1.23%; (48 h, read-out: Mortality 48 h) 86.7 ± 1.39%; under setting [2], 86.7 ± 1.39%.

On to `COC(=O)c1c(C(=O)OC)c2cc(C(=O)OC(C)C)ccn2c1C(=O)c1ccc(C#N)cc1` [Compound 3i, 7-isopropyl 1,2-dimethyl 3-(4-cyanobenzoyl)indolizine-1,2,7-tricarboxylate], for which the mortality at 4 µg/mL is, setting by setting: (24 h, read-out: Mortality 24 h) 62.4 ± 1.8%; under setting [1], 62.4 ± 1.8%; (48 h, read-out: Mortality 48 h) 63.8 ± 1.9%; under setting [2], 63.8 ± 1.9%.

In the case of `COC(=O)c1c(C(=O)OC)c2cc(C(=O)OC(C)C)ccn2c1C(=O)c1ccc(Br)cc1` [Compound 3g, 7-Isopropyl 1,2-dimethyl 3-(4-bromobenzoyl)indolizine-1,2,7-tricarboxylate], the mortality at 4 µg/mL by setting is: (24 h, read-out: Mortality 24 h) 89.4 ± 2.42%; under setting [1], 89.4 ± 2.42%; (48 h, read-out: Mortality 48 h) 91.1 ± 2.21%; under setting [2], 91.1 ± 2.21%.

With “1-Ethyl 7-isopropyl 3-(3,5-bis(trifluoromethyl)benzoyl)indolizine-1,7-dicarboxylate [Compound 3m]”, where the note is “Anopheles arabiensis larvae exposed 24 h, 4 μg/mL, adjusted mean ± standard error”, the “Mortality 24 h” value is on record as 93.45 ± 1.29%. Where the note is “Anopheles arabiensis larvae exposed 48 h, 4 μg/mL, adjusted mean ± standard error”, the “Mortality 48 h” value came to 96.12 ± 1.90%. In addition, the “larval mortality rate in 24 hours” value (in 24 hours) was 93.45±1.29. Besides, the “larval mortality rate in 48 hours” value (in 48 hours) was found to be 96.12±1.90.

For `COC(=O)c1c(C(=O)OC)c2cc(C(=O)OC(C)C)ccn2c1C(=O)c1ccc(F)cc1` [Compound 3c, 7-Isopropyl 1,2-dimethyl 3-(4-fluorobenzoyl)indolizine-1,2,7-tricarboxylate], the mortality at 4 µg/mL (24 h, read-out: Mortality 24 h) came out at 79.1 ± 1.65%; the mortality at 4 µg/mL under setting [1] is 79.1 ± 1.65%; the mortality at 4 µg/mL (48 h, read-out: Mortality 48 h) worked out at 82.3 ± 2.71%; the mortality at 4 µg/mL under setting [2] worked out at 82.3 ± 2.71%.

On to `CCOC(=O)c1cc(C(=O)c2ccc(C#N)cc2)n2ccc(C(=O)OC(C)C)cc12` [Compound 3j, 1-Ethyl 7-isopropyl 3-(4-cyanobenzoyl)indolizine-1,7-dicarboxylate], for which the mortality at 4 µg/mL (24 h, read-out: Mortality 24 h) worked out at 61.6 ± 1.23%; the mortality at 4 µg/mL under setting [1] is 61.6 ± 1.23%; the mortality at 4 µg/mL (48 h, read-out: Mortality 48 h) was determined as 66.1 ± 2.62%; the mortality at 4 µg/mL under setting [2] came to 66.1 ± 2.62%.

With `CCOC(=O)c1cc(C(=O)c2ccc(F)cc2)n2ccc(C(=O)OC(C)C)cc12` [Compound 3d, 1-Ethyl 7-isopropyl 3-(4-fluorobenzoyl)indolizine-1,7-dicarboxylate], the mortality at 4 µg/mL runs as follows: (24 h, read-out: Mortality 24 h) 87.3 ± 1.64%; under setting [1], 87.3 ± 1.64%; (48 h, read-out: Mortality 48 h) 91.2 ± 3.18%; under setting [2], 91.2 ± 3.18%.

With `COC(=O)c1c(C(=O)OC)c2cc(C(=O)OC(C)C)ccn2c1C(=O)c1ccc(Cl)cc1` [Compound 3e, 7-Isopropyl 1,2-dimethyl 3-(4-chlorobenzoyl)indolizine-1,2,7-tricarboxylate], the mortality at 4 µg/mL stood at 67.9 ± 2.91% (24 h, read-out: Mortality 24 h); 67.9 ± 2.91% under setting [1]; 70.9 ± 1.67% (48 h, read-out: Mortality 48 h); 70.9 ± 1.67% under setting [2].
